This assay concerns A/Vietnam/1194/04 H5N1 virus. Details: species or system BALB/c mice. Particulars: mouse, in vivo.

Take Nucleozin: the “animals that survived for more than 21 days” value is on record as 90%. Where the note is “ip”, the “survival rate after inoculation compared with untreated controls” value is “significantly higher survival rate”.

These data come from patent US20120149715A1, “COMPOUNDS AND METHODS FOR THE TREATMENT OF VIRAL INFECTIONS” (priority 2010, published 2012).
